According to US8273773B2 (priority 2008, dated 2012):

Assays:
[1] = tested on: HCV replicon cells (2209-23), genotype 1b replicon; experiment: HCV Replicon Assay (Renilla luciferase reporter); format: cell-based, HCV genotype 1b replicon in human hepatoma Huh7 cells; details: Hepatitis C virus, 72 h, 2209-23 cells, three days incubation
HCV = details: monotherapy; cited from earlier work

| Structure (SMILES) | melting point [°C] | IC50 [1] [µM] | patients in whom serum amino transferase levels are reduced to normal (HCV) [%] |
| --- | --- | --- | --- |
| COc1c(/C=C/c2ccc(NS(C)(=O)=O)cc2C(=O)O)cc(-c2ccc[nH]c2=O)cc1C(C)(C)C [I-203, 2-{(E)-2-[3-tert-Butyl-2-methoxy-5-(2-oxo-1,2-dihydro-pyridin-3-yl)-phenyl]-vinyl}-5-methanesulfonylamino-benzoic acid] | 260 to 262 | 0.01 | – |
| CC1(C)COc2c(-c3cc(F)c[nH]c3=O)cc(/C=C/c3ccc(NS(C)(=O)=O)cc3)cc21 [II-3] | 264 to 266 | 0.0546 | – |
| NC(=O)c1ncn([C@@H]2O[C@H](CO)[C@@H](O)[C@H]2O)n1 [ribavirin, 1-((2R,3R,4S,5R)-3,4-Dihydroxy-5-hydroxymethyl-tetrahydro-furan-2-yl)-1H-[1,2,4]triazole-3-carboxylic acid amide] | – | – | 40 |
